Key:
[1] = tested on: HBEC; assay: ATPlite secondary toxicity assay
From the text: In addition, a second toxicity assay was developed using the ATPlite (Perkin Elmer) assay to evaluate possible toxicity caused by target viruses. With this assay ATP, which is produced by metabolically active cells, reacts with luciferase and D-luciferin to emit light. This assay is based on the luciferase-mediated and ATP-dependent conversion of D-luciferin into oxyluciferin resulting in emission of light. The emitted light, measured as luminescence, is proportional to the ATP concentration in the sample and thus to the number of viable cells.
A staurosporin concentration curve (two-fold dilution ranging from 1 to 0.03 μM) was added to each cell plate as a reference for toxicity and the ATPlite read-out was performed.
The data after log transformation and robust Z-score normalization based on negatives was used for the analysis of the results.

[2] = tested on: HBEC; assay: CellTiter-Blue (CTB) cell viability assay in on target screen
[3] = tested on: MMP10; assay: EMT on target screen, MMP10 read-out; type: cell-based, human; conditions: for OT MMP10 Screen Z-score 2: as E13, duplicate 2; for OT MMP10 Screen Z-score 1: robust Z-score, HBEC donor Br299, duplicate 1, cut-off Z ≦ −1.25
[4] = tested on: HBEC
[5] = tested on: Fibronectin (FN); assay: EMT on target screen, FN read-out; type: cell-based, human; conditions: for OT FN Screen Z-score 2: as E11, duplicate 2; for Both (shRNA is a hit again in both OT assays, Yes/No): on target validation, Table 16; for OT FN Screen Z-score 1: robust Z-score, HBEC donor Br299, duplicate 1, cut-off Z ≦ −1.25

`CN[C@@H]1C[C@H]2O[C@@](C)([C@@H]1OC)n1c3ccccc3c3c4c(c5c6ccccc6n2c5c31)C(=O)NC4` [staurosporin] was tested, and the toxicity ([1]; 0.6 μM staurosporin treatment) was 30%, the “average Z-score” value ([1]; 0.6 μM staurosporin, robust Z-score on negatives) was −5.5 and the “luminescence at highest concentration of staurosporin used” value ([1]; concentration curve 1 to 0.03 μM) was “decreased the luminescence to near background signal”. The “average Z-score of CTB data” value ([2]; 0.03 μM staurosporin, lowest concentration of the standard curve) was “within the same range as the control panel and the trigger only samples” and the “Z-score of CTB data” value ([2]; 0.06 μM staurosporin) was “decreased clearly”.
With “55 (AGGCTCACTTGCCTTTGGC; chemistry not given here) [compound 55]” the “OT MMP10 Screen Z-score 2” value [3] was 0.18, the “OT MMP10 Screen Z-score 1” value [3] was 0.92 and the “OT CTB assay Z-score 1” value [4] was -4.29. The “OT CTB assay Z-score 2” value [4] was -8.29, the “OT FN Screen Z-score 2” value [5] was -6.07 and the “Both (shRNA is a hit again in both OT assays, Yes/No)” value [5] was “yes”. For the same compound, the “OT FN Screen Z-score 1” value [5] was -4.43.
In the case of “73 (GAAACCATCCTTTCTTGAA; chemistry not given here) [compound 73]”, the “OT MMP10 Screen Z-score 2” value [3] is reported as 0.06, the “OT MMP10 Screen Z-score 1” value [3] is reported as -0.19 and the “OT CTB assay Z-score 1” value [4] is reported as -1.31. The “OT CTB assay Z-score 2” value [4] was -2.09, the “OT FN Screen Z-score 2” value [5] was -2.91 and the “Both (shRNA is a hit again in both OT assays, Yes/No)” value [5] was “no”. For the same compound, the “OT FN Screen Z-score 1” value [5] was -2.09.
For “75 (TCGCTAGGTATGAATAACC; chemistry not given here) [compound 75]”, the “OT MMP10 Screen Z-score 2” value [3] was -0.75, the “OT MMP10 Screen Z-score 1” value [3] was 0.15 and the “OT CTB assay Z-score 1” value [4] was -0.46. For the same compound, the “OT CTB assay Z-score 2” value [4] was -2.90, the “OT FN Screen Z-score 2” value [5] was -2.58 and the “Both (shRNA is a hit again in both OT assays, Yes/No)” value [5] was “yes”. The “OT FN Screen Z-score 1” value [5] was -2.04.
